The text below walks through data of US8501813B2, “γ-secretase inhibitor” (Kabushiki Kaisha Yakult Honsha, priority 2007, dated 2013).

Like-named read-outs stand apart in the source and are kept apart here. A value given as a limit tells only on which side of the number the result lay.

This test concerns the target γ-secretase (Homo sapiens, UniProt P49768). The experiment in a line: Aβ secretion by C99 cells (HEK293 stably expressing APP-C99), γ-secretase inhibitory effect, Aβ ELISA of culture supernatant. The class given is cell-based. The note with it: for activity at 0.3 µM / activity at 1 µM / activity at 3 µM / activity at 10 µM / activity at 0.03 µM / activity at 0.1 µM: HEK293, 24 h; for activity at 0.3 µM: exposure 0.3 μmol/L; for activity at 1 µM: exposure 1 μmol/L; for activity at 3 µM: exposure 3 μmol/L; for activity at 10 µM: exposure 10 μmol/L; for activity at 0.03 µM: exposure 0.03 μmol/L; for activity at 0.1 µM: exposure 0.1 μmol/L; for inhibition at 0.3 µM / inhibition at 10 µM: HEK293, read-out: Aβ40 inhibitory rate (in terms of the inhibitory rate, from secretion rate); for inhibition at 0.3 µM: exposure concentration 0.3 μM; for inhibition at 10 µM: exposure concentration 10 μM. The source says:
HEK293 cells (ATCC) were transfected with APP C99 pcDNA3.1 (the nucleotide sequence of its coding region is shown in SEQ ID NO: 1) (J. Biol. Chem., 2003, 278, 49448-49458). Cell strains (C99 cells) confirmed to stably express APP-C99 (artificial APP fragment that originally lacked a polypeptide portion to be cleaved by α- or β-secretase at the first stage in the two-stage reaction of Aβ production from APP) were used to study the γ-secretase inhibitory effects of four test substances (TLVM-5, TLVM-7, TLVM-8, and TLVM-9) in vitro.
In the present test, a medium used for the C99 cells was 500 mL of a Dulbecco's Modified Eagle's Medium (DMEM, Sigma-Aldrich Corp.) supplemented with 55 ml of fetal bovine serum (Biosource), 5.5 ml of MEM non-essential amino acids (Gibco), and 5.5 ml of penicillin/streptomycin (Gibco).
The C99 cells were suspended at a concentration of 5×10^4 cells/ml in the medium. The suspension was added at a concentration of 1 ml (5×10^4 cells)/well to a 24-well collagen plate (Akita Sumitomo Bakelite Co., Ltd.) and cultured for 3 days. Then, the medium in the wells was removed, and the wells were washed with a medium (1 ml/well). The medium was removed, and a fresh medium was then added thereto at a concentration of 0.4 ml/well. The cells were exposed to the test substances and positive controls and incubated for 24 hours, and the culture supernatants were collected. The positive controls used were L-685,458 (CALBIOCHEM) and Boc-Leu-Val-Met-Leu-OMe (hereinafter, referred to as LVML-1) disclosed in Example 1 of Patent Document 1 (WO03/091278). The exposure concentrations were set to four concentrations, 0.3, 1, 3, and 10 μmol/L, for all the test substances and the positive controls. The concentrations of Aβ (1-40) and Aβ (1-42) in the culture supernatants were measured using Human Amyloid β (1-40) (N) Assay Kit (L)-IBL and Human Amyloid β (1-42) (N) Assay Kit (L)-IBL (Immuno-Biological Laboratories, Co., Ltd.). The amounts of Aβ (1-40) and Aβ (1-42) secreted were calculated by subtracting the concentrations of Aβ (1-40) and Aβ (1-42) originally contained in the medium before the C99 cell inoculation, from the measured concentrations thereof, respectively. Moreover, when the Aβ secretion rate of a negative control (5% DMSO-containing medium, resulting in 1% DMSO at the final concentration) is defined as 100%, Aβ secretion rates at each concentration of the test substances and the positive controls were calculated.
The TLVM-5, TLVM-7, TLVM-8, and TLVM-9 confirmed in Example 8 to have strong inhibitory activities against γ-secretase activities were subjected to an additional experiment at low concentrations (exposure concentrations were set to three concentrations, […], for the test substances and to four concentrations, 0.1, 0.3, 1, and 3 μmol/L, for the positive control).
Moreover, Aβ secretion rates at two concentrations of the test substance that bracket the concentration at which Aβ secretion was inhibited by 50% (IC50) were used to calculate IC50 according to the following equation: IC50:10^[LOG(A/B)*(50−C)/(D−C)+LOG(B)],wherein
A: of the two points that bracket 50% inhibition, the higher concentration of the test substance,
B: of the two points that bracket 50% inhibition, the lower concentration of the test substance,
C: secretion rate (%) at the concentration B, and
D: secretion rate (%) at the concentration A.
On the technique in general: In an ELISA, binding on a coated surface is turned into a signal by an enzyme label.

[1] abbreviates: Example 8, 24 h, read-out: Aβ [(1-40) + (1-42)] secretion rate of C99 cells.
Setting [2] is: Example 8, 24 h, read-out: Aβ (1-40) secretion rate of C99 cells.
Where [3] appears, read: Example 9 (low concentrations), read-out: Aβ (1-40) secretion rate of C99 cells.
[4] abbreviates: Example 9, read-out: Aβ (1-42) secretion rate of C99 cells.
[5] abbreviates: Example 9, read-out: Aβ [(1-40) + (1-42)] secretion rate of C99 cells.
Setting [6] is: Example 9, read-out: Aβ (1-40) secretion rate of C99 cells.
Where [7] appears, read: Example 8, 24 h, negative control = 100%, read-out: Aβ (1-40) secretion rate of C99 cells.
[8] abbreviates: Example 8, 24 h, read-out: Aβ (1-42) secretion rate of C99 cells.

For the molecule `CSCCC(NC(=O)C(NC(=O)C(CC(C)C)CC(O)C(NC(=O)OC(C)(C)C)C(C)O)C(C)C)C(=O)NCc1ccccc1` [TLVM-5, [5S-(tert-butoxycarbonylamino)-4R,6R-dihydroxy-2R-(2-methylpropyl)heptanoyl]-L-valyl-L-methionine benzylamide], the inhibition at 0.3 µM is not below 76% and the inhibition at 10 µM is not below 97%. For the same molecule, under setting [1], the activity at 0.3 µM came to 14%, the activity at 1 µM worked out at 8%, the activity at 3 µM worked out at 7% and the activity at 10 µM is 6%. Under setting [2], the activity at 1 µM was 5%, the activity at 3 µM stood at 4% and the activity at 10 µM is not above 3%. The activity at 0.03 µM under setting [3] was 100%. Besides, under setting [4], the activity at 0.03 µM was found to be 131%, the activity at 0.1 µM worked out at 74% and the activity at 0.3 µM was 43%. For the same molecule, under setting [5], the activity at 0.03 µM is 101%, the activity at 0.1 µM is 40% and the activity at 0.3 µM came out at 16%. Further, under setting [6], the activity at 0.1 µM is 39% and the activity at 0.3 µM came out at 15%.
Consider `CCCCNC(=O)C(CCSC)NC(=O)C(NC(=O)C(CC(C)C)CC(O)C(NC(=O)OC(C)(C)C)C(C)O)C(C)C` [TLVM-7, [5S-(tert-butoxycarbonylamino)-4R,6R-dihydroxy-2R-(2-methylpropyl)heptanoyl]-L-valyl-L-methionine n-butylamide], for which the inhibition at 0.3 µM was not below 76% and the inhibition at 10 µM was not below 97%. Besides, the activity at 0.3 µM under setting [7] was not above 24%. Further, under setting [8], the activity at 0.3 µM amounted to 15%, the activity at 1 µM was 55%, the activity at 3 µM is 67% and the activity at 10 µM amounted to 0%. For the same molecule, under setting [1], the activity at 0.3 µM amounted to 23%, the activity at 1 µM amounted to 10%, the activity at 3 µM was 4% and the activity at 10 µM is 2%. For the same molecule, under setting [2], the activity at 1 µM was found to be 8%, the activity at 3 µM was found to be 1% and the activity at 10 µM was not above 3%. Moreover, under setting [3], the activity at 0.03 µM was 124%. Further, under setting [4], the activity at 0.03 µM was 156%, the activity at 0.1 µM worked out at 94% and the activity at 0.3 µM turned out to be 33%. For the same molecule, under setting [5], the activity at 0.03 µM was determined as 126%, the activity at 0.1 µM turned out to be 44% and the activity at 0.3 µM stood at 14%. Further, under setting [6], the activity at 0.1 µM turned out to be 42% and the activity at 0.3 µM stood at 13%.
Turning to `CSCCC(NC(=O)C(NC(=O)C(CC(C)C)CC(O)C(NC(=O)OC(C)(C)C)C(C)O)C(C)C)C(=O)NC(C)c1ccccc1` [TLVM-8, [5S-(tert-butoxycarbonylamino)-4R,6R-dihydroxy-2R-(2-methylpropyl)heptanoyl]-L-valyl-L-methionine (S)-α-methylbenzylamide], the inhibition at 0.3 µM was not below 76% and the inhibition at 10 µM was not below 97%. Under setting [8], the activity at 0.3 µM stood at 7%, the activity at 1 µM came out at 11%, the activity at 3 µM worked out at 61% and the activity at 10 µM was found to be 0%. Further, under setting [1], the activity at 0.3 µM amounted to 7%, the activity at 1 µM turned out to be 1%, the activity at 3 µM is 5% and the activity at 10 µM stood at 1%. In addition, under setting [2], the activity at 1 µM was 1% and the activity at 3 µM was found to be 2%. For the same molecule, the activity at 0.03 µM under setting [3] worked out at 53%. Moreover, under setting [4], the activity at 0.03 µM is 71%, the activity at 0.1 µM was found to be 52% and the activity at 0.3 µM came to 33%. In addition, under setting [5], the activity at 0.03 µM was found to be 54%, the activity at 0.1 µM worked out at 17% and the activity at 0.3 µM came out at 8%. Besides, under setting [6], the activity at 0.1 µM came out at 16% and the activity at 0.3 µM was 7%.
Turning to `CSCCC(NC(=O)C(NC(=O)C(CC(C)C)CC(O)C(NC(=O)OC(C)(C)C)C(C)O)C(C)C)C(=O)NCc1ccc(F)cc1` [TLVM-9, [5S-(tert-butoxycarbonylamino)-4R,6R-dihydroxy-2R-(2-methylpropyl)heptanoyl]-L-valyl-L-methionine 4-fluorobenzylamide], the inhibition at 0.3 µM is not below 76% and the inhibition at 10 µM is not below 97%. Under setting [7], the activity at 0.3 µM was not above 24%. Also, under setting [8], the activity at 0.3 µM turned out to be 2%, the activity at 1 µM was 11%, the activity at 3 µM worked out at 37% and the activity at 10 µM is 0%. Besides, under setting [1], the activity at 0.3 µM worked out at 15%, the activity at 1 µM worked out at 8%, the activity at 3 µM was 7% and the activity at 10 µM amounted to 3%. For the same molecule, under setting [2], the activity at 1 µM turned out to be 8%, the activity at 3 µM amounted to 5% and the activity at 10 µM was not above 3%. Under setting [3], the activity at 0.03 µM is 94%. Moreover, under setting [4], the activity at 0.03 µM came out at 97%, the activity at 0.1 µM was found to be 67% and the activity at 0.3 µM was found to be 49%. In addition, under setting [5], the activity at 0.03 µM came to 94%, the activity at 0.1 µM amounted to 33% and the activity at 0.3 µM amounted to 18%. Further, under setting [6], the activity at 0.1 µM stood at 32% and the activity at 0.3 µM was 17%.
